Data on 14 compounds can be found in ChEMBL document CHEMBL1145513, “S-adenosylmethionine-dependent protein methylation in mammalian cytosol via tyrphostin modification by catechol-O-methyltransferase” (J Biol Chem, 2007).

Structures are written as SMILES. Active and inactive are the calls of the source. The rule behind the calls is not given here.

For one assay, the species on record is Sus scrofa. Description: Activity of pig recombinant catechol-O-methyltransferase assessed per unit enzyme.
On to `N#CC(C#N)=Cc1ccc(O)cc1`, for which the Activity stood at 0.05 pmol/min.
`N#CC(C#N)=Cc1ccc(O)c(O)c1`: the Activity was determined as 2.44 pmol/min.
For `N#C/C(=C\c1ccc(O)c(O)c1)C(N)=S`, the Activity is 2.45 pmol/min.
The same measure, in the same setting: to `COc1c(C(C)(C)C)cc(C=C(C#N)C#N)cc1C(C)(C)C` belongs 0.04 pmol/min.
In the case of `N#CC(C#N)=Cc1cc(O)c(O)c([N+](=O)[O-])c1`, the Activity was found to be 0.05 pmol/min.
For the compound `C[C@H](NC(=O)/C(C#N)=C/c1ccc(O)c(O)c1)c1ccccc1`, the Activity was found to be 3.08 pmol/min.
`C[C@@H](NC(=O)/C(C#N)=C/c1ccc(O)c(O)c1)c1ccccc1`: the Activity is 3.06 pmol/min.
Same read-out and setting: to `N#C/C(=C\c1ccc(O)c(O)c1)C(=O)O` belongs 3.67 pmol/min.
Consider `N#CC(C#N)=Cc1cc(O)c(O)c(O)c1`, for which the Activity is 1.65 pmol/min.
On the same count and under the same terms, the result for `N#CC(C#N)=C(N)/C(C#N)=C/c1cc(O)c(O)c(O)c1` reads 1.79 pmol/min; that for `N#C/C(=C\c1ccc(O)c(O)c1)C(N)=O`, 2.98 pmol/min.
Same read-out and setting: to `N#C/C(=C\c1ccc(O)c(O)c1)C(=O)NCCCCc1ccccc1` belongs 2.84 pmol/min; to `N#C/C(=C\c1ccc(O)c(O)c1)C(=O)NCc1ccccc1`, 3.06 pmol/min; to `N#C/C(=C\c1ccc(O)c(O)c1)C(=O)NCCCc1ccccc1`, 3.11 pmol/min.

The species entered for the next assay is Sus scrofa. Description: Inhibition of pig recombinant catechol-O-methyltransferase at 100 uM.
As to `N#CC(C#N)=Cc1cc(O)c(O)c([N+](=O)[O-])c1`, the outcome was Active.
